Experimental data as given in article PMC8370666 (Journal of the Iranian Chemical Society, 2021).

Columns and labels:
Experiment in all cases: biochemical
[1] = molecular target: SARS-CoV nsp14 (Severe acute respiratory syndrome coronavirus, UniProt P0C6X7); conditions: for IC50: SARS-Cov nap14 IC50; for inhibition at 50 µM: read-out: % of inhibition at 50 μM, SARs-Cov nsp 14
[2] = molecular target: vaccinia virus capping enzyme (D1-D12) (Vaccinia virus, UniProt P04298); conditions: read-out: % of inhibition at 50 μM, Vaccinia virus D1-D12
[3] = molecular target: human RNA N7-MTase (hRNMT) (Homo sapiens, UniProt O43148); assay type: biochemical; conditions: for inhibition at 50 µM: read-out: % of inhibition at 50 μM, hRNMT
Sequence of human RNA N7-MTase (hRNMT) (O43148 whole entry): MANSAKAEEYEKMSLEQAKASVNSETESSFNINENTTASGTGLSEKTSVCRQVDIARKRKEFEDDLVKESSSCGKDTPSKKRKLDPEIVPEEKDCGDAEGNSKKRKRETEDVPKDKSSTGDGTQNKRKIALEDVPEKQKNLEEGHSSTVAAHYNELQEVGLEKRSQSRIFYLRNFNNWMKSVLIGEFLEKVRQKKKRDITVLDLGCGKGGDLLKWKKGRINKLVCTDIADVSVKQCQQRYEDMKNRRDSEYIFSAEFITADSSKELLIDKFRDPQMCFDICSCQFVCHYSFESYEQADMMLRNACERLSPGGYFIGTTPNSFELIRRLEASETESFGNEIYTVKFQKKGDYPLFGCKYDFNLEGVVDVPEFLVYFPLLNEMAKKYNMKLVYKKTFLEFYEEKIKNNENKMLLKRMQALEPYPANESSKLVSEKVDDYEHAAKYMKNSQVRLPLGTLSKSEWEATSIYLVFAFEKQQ

`CCOC(=O)c1c(N)sc2c1CCc1c-2sc(=S)n1-c1ccccc1` [Compound 21b, Ethyl 7-amino-3-phenyl-2-thioxo-2,3,4,5-tetrahydrothieno[2',3':3,4]benzo[1,2-d]thiazole-6-carboxylate] showed an IC50 [1] of 1.08 ± 0.58 µM, an inhibition at 50 µM [1] of 87.2 ± 5.36% and an inhibition at 50 µM [2] of 90.4 ± 6.53%. The “% of inhibition at 50 μM, hRNMT” value [3] was “high inhibitions”, the IC50 [3] was 0.94 ± 0.36 µM and the inhibition at 50 µM [3] was 88.2 ± 5.38%.
Work on `CCOC1C(C#N)=C(N)OC2=C1c1sc(=S)n(-c3ccccc3)c1CC2` (stereo not shown) [Compound 20a, 7-Amino-9-ethoxy-3-phenyl-2-thioxo-3,4,5,9-tetrahydro-2H-chromeno[6,5-d]thiazole-8-carbonitrile] yielded an IC50 [1] of 42.4 ± 5.63 µM, an inhibition at 50 µM [1] of 49.2 ± 6.73% and an inhibition at 50 µM [2] of 53.5 ± 8.25%. For the same molecule, the IC50 [3] was 58.3 ± 4.95 µM and the inhibition at 50 µM [3] was 70.4 ± 5.9%.
`CCOC(=O)CSC(Nc1ccccc1)=C1C(=O)CCC2=C1C(c1ccccc1Cl)C(C#N)=C(N)O2` (stereo not shown) [Compound 16, Ethyl 2-(((2-amino-4-(2-chlorophenyl)-3-cyano-6-oxo-7,8-dihydro-4H-chromen-5(6H)-ylidene)(phenylamino)methyl)thio)acetate] showed an IC50 [1] of 0.53 ± 0.18 µM, an inhibition at 50 µM [1] of 89.2 ± 6.58% and an inhibition at 50 µM [2] of 84.3 ± 6.29%. For the same molecule, the “% of inhibition at 50 μM, hRNMT” value [3] was “high inhibitions”, the IC50 [3] was 1.29 ± 0.98 µM and the inhibition at 50 µM [3] was 90.3 ± 4.66%.
`N#CC1=C(N)OC2=C(CC(=O)CC2)C1c1ccccc1` (stereo not shown) [Compound 4a, 2-Amino-6-oxo-4-phenyl-5,6,7,8-tetrahydro-4H-chromene-3-carbonitrile] was tested, and the IC50 [1] was 0.63 ± 0.32 µM, the inhibition at 50 µM [1] was 93.4 ± 3.68% and the inhibition at 50 µM [2] was 89.3 ± 7.89%. For the same molecule, the “% of inhibition at 50 μM, hRNMT” value [3] was “high inhibitions”, the IC50 [3] was < 0.05 µM and the inhibition at 50 µM [3] was 92.3 ± 5.41%.
`COc1ccc(C2C(C#N)=C(N)OC3=C2c2sc(N)c(C#N)c2CC3)cc1` (stereo not shown) [Compound 6c, 2,7-Diamino-9-(4-methoxyphenyl)-5,9-dihydro-4H-thieno[2,3-f]chromene-3,8-dicarbonitrile] showed an IC50 [1] of 0.45 ± 0.19 µM, an inhibition at 50 µM [1] of 88.2 ± 4.26% and an inhibition at 50 µM [2] of 92.2 ± 5.22%. The “% of inhibition at 50 μM, hRNMT” value [3] was “high inhibitions”, the IC50 [3] was < 0.05 µM and the inhibition at 50 µM [3] was 92.2 ± 5.22%.
In the case of `N#CC1=C(N)OC2=C(c3sc(=S)n(-c4ccccc4)c3CC2)C1c1ccccc1` (stereo not shown) [Compound 23a, 7-Amino-3,9-diphenyl-2-thioxo-3,4,5,9-tetrahydro-2H-chromeno[6,5-d]thiazole-8-carbonitrile], the IC50 [1] is reported as 32.4 ± 4.58 µM, the inhibition at 50 µM [1] is reported as 56.6 ± 6.72% and the inhibition at 50 µM [2] is reported as 45.8 ± 6.38%. It also gave an IC50 [3] of 24.7 ± 5.47 µM and an inhibition at 50 µM [3] of 42.7 ± 5.88%.
For `CCOC1C(C#N)=C(O)OC2=C1c1sc(=S)n(-c3ccccc3)c1CC2` (stereo not shown) [Compound 20b, 9-Ethoxy-7-hydroxy-3-phenyl-2-thioxo-3,4,5,9-tetrahydro–2H-chromeno[6,5-d]thiazole-8-carbonitrile], the IC50 [1] was 32.6 ± 3.8 µM, the inhibition at 50 µM [1] was 36.1 ± 6.83% and the inhibition at 50 µM [2] was 41.4 ± 4.93%. The IC50 [3] was 18.8 ± 5.36 µM and the inhibition at 50 µM [3] was 39.5 ± 6.83%.
`N#CC1=C(N)OC2=C(C=C(c3c(N)n[nH]c3N)CC2)C1c1ccccc1Cl` (stereo not shown) [Compound 9a, 2-Amino-4-(2-chlorophenyl)-6-(3,5-diamino-1H-pyrazol-4-yl)-7,8-dihydro-4H-chromene-3-carbonitrile] gave an IC50 [1] of 0.42 ± 0.19 µM, an inhibition at 50 µM [1] of 96.3 ± 2.4% and an inhibition at 50 µM [2] of 95.5 ± 3.23%. The “% of inhibition at 50 μM, hRNMT” value [3] was “high inhibitions”, the IC50 [3] was < 0.05 µM and the inhibition at 50 µM [3] was 93.6 ± 3.71%.
`N#Cc1c(N)sc2c1CCc1c-2sc(=S)n1-c1ccccc1` [Compound 21a, 7-Amino-3-phenyl-2-thioxo-2,3,4,5-tetrahydrothieno[2',3':3,4]benzo[1,2-d]thiazole-6-carbonitrile] was tested, and the IC50 [1] was 18.5 ± 2.68 µM, the inhibition at 50 µM [1] was 49.2 ± 6.73% and the inhibition at 50 µM [2] was 57.8 ± 5.82%. The IC50 [3] was 56.3 ± 4.62 µM and the inhibition at 50 µM [3] was 60.3 ± 5.37%.
`CCOC(=O)c1c(N)sc2c1CCC1=C2C(c2ccccc2)C(C#N)=C(N)O1` (stereo not shown) [Compound 6d, Ethyl 2,7-diamino-8-cyano-9-phenyl-5,9-dihydro-4H-thieno[2,3-f]chromene-3-carboxylate] showed an IC50 [1] of 26.7 ± 5.73 µM, an inhibition at 50 µM [1] of 42.6 ± 4.65% and an inhibition at 50 µM [2] of 36.3 ± 5.22%. For the same molecule, the IC50 [3] was 10.5 ± 2.69 µM and the inhibition at 50 µM [3] was 40.3 ± 6.27%.
For `CCOC(=O)C1=C(N)OC2=C(c3sc(=S)n(-c4ccccc4)c3CC2)C1c1ccc(Cl)cc1` (stereo not shown) [Compound 23d, Ethyl 7-amino-9-(4-chlorophenyl)-3-phenyl-2-thioxo-3,4,5,9-tetrahydro-2H-chromeno[6,5-d]thiazole-8-carboxylate], the IC50 [1] was 0.49 ± 0.13 µM, the inhibition at 50 µM [1] was 57.7 ± 4.26% and the inhibition at 50 µM [2] was 72.3 ± 5.58%. For the same molecule, the IC50 [3] was < 0.05 µM and the inhibition at 50 µM [3] was 68.6 ± 6.42%.
With `Nc1ncnc2c1ncn2[C@@H]1O[C@H](C[C@@H](N)CC[C@H](N)C(=O)O)[C@@H](O)[C@H]1O` [Sinefungin, reference compound] the inhibition at 50 µM [1] was 98.36 ± 0.23% and the IC50 [3] was < 0.05 µM.
`N#CC1=C(N)OC2=C(c3sc(=S)n(-c4ccccc4)c3CC2)C1c1ccc(Cl)cc1` (stereo not shown) [Compound 23b, 7-Amino-9-(4-chlorophenyl)-3-phenyl-2-thioxo-3,4,5,9-tetrahydro-2H-chromeno[6,5-d]thiazole-8-carbonitrile] showed an IC50 [1] of 0.35 ± 0.15 µM, an inhibition at 50 µM [1] of 94.5 ± 6.83% and an inhibition at 50 µM [2] of 96.3 ± 8.92%. For the same molecule, the “% of inhibition at 50 μM, hRNMT” value [3] was “high inhibitions”, the IC50 [3] was < 0.05 µM and the inhibition at 50 µM [3] was 96.4 ± 7.24%.
With `CCOC(=O)c1c(N)sc2c1CCC1=C2C(c2ccc(OC)cc2)C(C#N)=C(N)O1` (stereo not shown) [Compound 6f, Ethyl 2,7-diamino-8-cyano-9-(4-methoxyphenyl)-5,9-dihydro-4H-thieno[2,3-f]chromene-3-carboxylate] the IC50 [1] was 36.4 ± 4.51 µM, the inhibition at 50 µM [1] was 58.3 ± 3.65% and the inhibition at 50 µM [2] was 44.8 ± 5.08%. For the same molecule, the IC50 [3] was 1.26 ± 0.58 µM and the inhibition at 50 µM [3] was 62.5 ± 5.84%.
`COc1ccc(C2C(C#N)=C(N)OC3=C2CC(=O)CC3)cc1` (stereo not shown) [Compound 4c, 2-Amino-4-(4-methoxyphenyl)-6-oxo-5,6,7,8-tetrahydro-4H-chromene-3-carbonitrile] gave an IC50 [1] of 16.4 ± 2.7 µM, an inhibition at 50 µM [1] of 34.6 ± 4.62% and an inhibition at 50 µM [2] of 49.4 ± 6.92%. The IC50 [3] was 32.6 ± 1.7 µM and the inhibition at 50 µM [3] was 51.7 ± 4.62%.
`N#CC1=C(N)OC2=C(CC(=O)CC2)C1c1ccccc1Cl` (stereo not shown) [Compound 4b, 2-Amino-4-(2-chlorophenyl)-6-oxo-5,6,7,8-tetrahydro-4H-chromene-3-carbonitrile] gave an IC50 [1] of 0.62 ± 0.32 µM, an inhibition at 50 µM [1] of 87.5 ± 8.21% and an inhibition at 50 µM [2] of 98.3 ± 5.42%. For the same molecule, the “% of inhibition at 50 μM, hRNMT” value [3] was “high inhibitions”, the IC50 [3] was 0.41 ± 0.26 µM and the inhibition at 50 µM [3] was 94.6 ± 7.68%.
With `CCOC(=O)c1c(N)sc2c1CCC1=C2C(c2ccccc2Cl)C(C#N)=C(N)O1` (stereo not shown) [Compound 6e, Ethyl 2,7-diamino-9-(2-chlorophenyl)-8-cyano-5,9-dihydro-4H-thieno[2,3-f]chromene-3-carboxylate] the IC50 [1] was 0.39 ± 0.25 µM, the inhibition at 50 µM [1] was 89.2 ± 8.27% and the inhibition at 50 µM [2] was 92.5 ± 6.9%. The “% of inhibition at 50 μM, hRNMT” value [3] was “high inhibitions”, the IC50 [3] was 0.29 ± 0.08 µM and the inhibition at 50 µM [3] was 80.2 ± 6.28%.
`CC1=CSC(=C2C(=O)CCC3=C2C(c2ccccc2Cl)C(C#N)=C(N)O3)N1c1ccccc1` (stereo not shown) [Compound 15, 2-Amino-4-(2-chlorophenyl)-5-(4-methyl-3-phenylthiazol-2(3H)-ylidene)-6-oxo-5,6,7,8-tetrahydro-4H-chromene-3-carbonitrile] was tested, and the IC50 [1] was 22.6 ± 3.58 µM, the inhibition at 50 µM [1] was 89.2 ± 5.83% and the inhibition at 50 µM [2] was 90.4 ± 5.68%. The “% of inhibition at 50 μM, hRNMT” value [3] was “high inhibitions”, the IC50 [3] was 4.91 ± 2.34 µM and the inhibition at 50 µM [3] was 87.3 ± 6.42%.
With `CCOC(=O)C1=C(N)OC2=C(c3sc(=S)n(-c4ccccc4)c3CC2)C1c1ccccc1` (stereo not shown) [Compound 23c, Ethyl 7-amino-3,9-diphenyl-2-thioxo-3,4,5,9-tetrahydro-2H-chromeno[6,5-d]thiazole-8-carboxylate] the IC50 [1] was 28.4 ± 3.26 µM, the inhibition at 50 µM [1] was 64.3 ± 5.53% and the inhibition at 50 µM [2] was 70.4 ± 5.63%. For the same molecule, the IC50 [3] was 70.3 ± 3.8 µM and the inhibition at 50 µM [3] was 59.3 ± 4.68%.
With `O=C1CCc2c(sc(=S)n2-c2ccccc2)C1` [Compound 18, 3-Phenyl-2-thioxo-2,3,4,5-tetrahydrobenzo[d]thiazol-6(7H)-one] the IC50 [1] was 53.3 ± 5.62 µM, the inhibition at 50 µM [1] was 56.4 ± 5.73% and the inhibition at 50 µM [2] was 63.7 ± 7.08%. The IC50 [3] was 26.5 ± 6.28 µM and the inhibition at 50 µM [3] was 65.5 ± 4.8%.
Work on `N#CC1=C(N)OC2=C(c3sc(N)c(C#N)c3CC2)C1c1ccccc1` (stereo not shown) [Compound 6a, 2,7-Diamino-9-phenyl-5,9-dihydro-4H-thieno[2,3-f]chromene-3,8-dicarbonitrile] yielded an IC50 [1] of 26.4 ± 3.57 µM, an inhibition at 50 µM [1] of 68.2 ± 4.53% and an inhibition at 50 µM [2] of 79.3 ± 5.37%. The “% of inhibition at 50 μM, hRNMT” value [3] was “high inhibitions”, the IC50 [3] was 36.5 ± 6.27 µM and the inhibition at 50 µM [3] was 80.3 ± 3.74%.
For `N#CC1=C(N)OC2=C(C=C(c3c(N)nn(-c4ccccc4)c3N)CC2)C1c1ccccc1Cl` (stereo not shown) [Compound 9b, 2-Amino-4-(2-chlorophenyl)-6-(3,5-diamino-1-phenyl-1H-pyrazol-4-yl)-7,8-dihydro-4H-chromene-3-carbonitrile], the IC50 [1] was 0.36 ± 0.2 µM, the inhibition at 50 µM [1] was 93.3 ± 4.17% and the inhibition at 50 µM [2] was 96.1 ± 2.48%. The “% of inhibition at 50 μM, hRNMT” value [3] was “high inhibitions”, the IC50 [3] was 1.91 ± 1.32 µM and the inhibition at 50 µM [3] was 90.3 ± 5.2%.
